This note sets out measurements from the NIST ThermoML archive (doi:10.1021/acs.jced.5b00710).

This series in a line: an = ratio of the nth substance listed. As to conditions: 298.15 K; 101 kPa; Liquid; Cone and plate viscometry; a1 = 1.

Molecules are shown by their SMILES. ± gives the expanded uncertainty stated by the source.

Broadly, the viscosity is the internal friction of a fluid under shear.

`CCCCCCCCCCCCCC[P+](CCCCCC)(CCCCCC)CCCCCC.O=S(=O)([N-]S(=O)(=O)C(F)(F)F)C(F)(F)F` + NCCO: the viscosity is on record as 90 ± 2 mPa·s.
